Results taken from US20060069095A1, “Azole derivatives” (priority 2004, published 2006).

Key:
[1] = tested on: HEK293 cells; experiment: CellTiter-Glo Luminescent Cell Viability Assay in HEK293 cells; type: cell-based; settings: Homo sapiens, 168 h, 7 days incubation, 3 μM to 0.00015 μM
Text: CellTiter-Glo™ Assay in HEK293 Cells
The CellTiter-Glo™ Luminescent Cell Viability Assay (Promega) is a homogeneous method of determining the number of viable cells in culture based on quantitation of the ATP present, which signals the presence of metabolically active cells.
HEK293 cells (human embryonic kidney cell line transformed by Adenovirus 5 fragments, ATCC-No. CRL 1573) were cultivated in Dulbecco's Modified Eagle Medium (DMEM) with Glutamax™ (Invitrogen, 31966-021), 5% Fetal Calf Serum (FCS, Sigma Cat-No. F4135 (FBS)), 100 Units/ml penicillin/100 μg/ml streptomycin (=Pen/Strep from Invitrogen Cat. No. 15140)., For the assay the cells were seeded in 384 well plates, 5000 cells per well, in the same medium. The next day the test compounds were added in various concentrations ranging from 3 μM to 0.00015 μM (10 concentrations, 1:3 diluted). After 7 days the CellTiter-Glo™ assay was done according to the instructions of the manufacturer (CellTiter-Glo™ Luminescent Cell Viability Assay, from Promega). In brief: the cell-plate was equilibrated to room temperature for approximately 30 minutes and than the CellTiter-Glo™ reagent was added. The contents were carefully mixed for 15 minutes to induce cell lysis. After 45 minutes the luminescent signal was measured in Victor 2, (scanning multiwell spectrophotometer, Wallac).
Medium: Dulbecco's Modified Eagle Medium (DMEM) with Glutamax™ (Invitrogen, 31966-021), 5% Fetal Calf Serum (FCS, Sigma Cat-No. F4135 (FBS)), Pen/Strep (Invitrogen Cat. No. 15140).
Incubate 24 h at 37° C., 5% CO2
2nd Day: Induction (Substance Testing):
In general the dilution steeps are 1:3 • a) Add 8 μl of 10 mM stock solution of compound to 72 μl DMSO • b) dilute 9×1:3 (always 30 μl to 60 μl DMSO) in this DMSO dilution row (results in 10 wells with concentrations from 1000 μM to 0.06 μM) • c) dilute each concentration 1:4.8 (10 μl compound dilution to 38 μl medium) • d) dilute each concentration 1:10 (10 μl compound dilution to 90 μl medium) • e) add 10 μl of every concentration to 60 μl medium in the cell plate • resulting in final concentration of DMSO: 0.3% in every well • and resulting in final concentration of compounds from 3 μM to 0.00015 μM • Incubate 168 h (7 days) at 37° C., 5% CO2
Analysis: • Add 30 μl CellTiter-Glo™ Reagent/well, • shake 15 minutes at room temperature • incubate further 45 minutes at room temperature without shaking.
Measurement: • Victor 2 scanning multiwell spectrophotometer (Wallac), Luminescence mode • Determine IC50 with XL-fit (XLfit software (ID Business Solution Ltd., Guilford, Surrey, UK)).

[2] = tested on: A549 cells; experiment: MTT assay in A549 cells; type: cell-based, human; settings: Homo sapiens, 120 h, 5 days incubation, 3 μM to 0.15 nM
Procedure: To further show the activity of the compounds according to this invention, their effects on a […] was evaluated using a standard MTT-assay. MTT (3-(4,5-dimethylthiazol-2-yl)-2,5-diphenyl tetrazolium bromide) is widely used for the quantitative determination of cytotoxic effects or in vitro chemosensitivity of tumor cells. The assay is based on the cleavage of the yellow tetrazolium salt (MTT) to purple formazan crystals by metabolic active cells. For details, see Rubinstein, L. V., et al., J. Natl. Cancer Inst. 82 (1990) 1113-1118.
A549 cells (human lung carcinoma cell line ATTC-No. CCL-185) were cultivated in RPMI (Roswell Park Memorial Institute) 1640 medium with GlutaMAX™ I (Invitrogen, Cat-No. 61870-010), 2,5% Fetal Calf Serum (FCS, Sigma Cat-No. F4135 (FBS)); 100 Units/ml penicillin/100 μg/ml streptomycin (=Pen/Strep from Invitrogen Cat. No. 15140). For the assay the cells were seeded in 384 well plates, 900 cells per well, in the same medium. The next day compounds (dissolved 10 mM in dimethylsulfoxide (DMSO)) were added in various concentrations ranging from 3 μM to 0.15 nM (10 concentrations, 1:3 diluted). After 5 days MTT assay was done mainly according to the instructions of the manufacturer (Cell proliferation kit I, MTT, from Roche Molecular Biochemicals). In brief: MTT labeling reagent (3-(4,5-dimethylthiazol-2-yl)-2,5-diphenyltetrazolium bromide (MTT)) was added to a final concentration of 0.5 mg/ml, added and incubated for 4 hrs at 37° C., 5% CO2. During this incubation time purple formazan crystals are formed. After addition of the solubilization solution (20% Sodium Dodecyl Sulfate (SDS) in 0.02 M HCl) the plates were incubated overnight at 37° C., 5% CO2. After careful mixing plates were measured in Victor 2 scanning multiwell spectrophotometer (Wallac) at 550 nm.
A decrease in number of living cells results in a decrease in the total metabolic activity in the sample. The decrease directly correlates to the amount of purple color resulting from the solubilization of the purple formazan crystals.
• A549: 900 cells in 60 μl per well of 384 well plate (Greiner) • Medium: RPMI 1640, 2.5% FCS, glutamine, Pen/Strep. • Incubate 1 day at 37° C.
Induction: • Dilution of compound in DMSO: 3 μl 10 mM+27 μl DMSO, dilute 1:3 • Add 2 μl of compound dilution row to 95 μl of medium • Add 10 μl of compound dilution to 60 μl medium in test plate resulting in 0.3% DMSO per well • Incubate 120 h (5 days) at 37° C., 5% CO2
Analysis: • Add 7 μl MTT (5 mg/7 ml/well), incubate 4 h at 37° C. • Add 30 μl lysis buffer (20% SDS, 0.04 N HCl) per well • Incubate overnight at 37° C.
Measurement: • Victor 2 scanning multiwell spectrophotometer (Wallac) at 550 nm
Determination of IC50 was done using XL-fit (XLfit software (ID Business Solution Ltd., Guilford, Surrey, UK)).

Row | IC50 [2] [nM] | Compound | IC50 [1] [nM]
1 | 200 to 1000 | FC(F)(F)Oc1ccc(/C=C/c2nc(COc3ccc(CCCCc4nn[nH]n4)cc3)co2)cc1 [Example 2.1, 5-[4-(4-{2-[(E)-2-(4-Trifluoromethoxy-phenyl)-vinyl]-oxazol-4-ylmethoxy}-phenyl)-butyl]-2H-tetrazole] | 250 to 1500
2 | 17 | Cn1nnnc1CCCCc1ccc(OCc2coc(/C=C/c3ccc(OC(F)(F)F)cc3)n2)cc1 [Example 2.2, Methyl-5-[4-(4-{2-[(E)-2-(4-trifluoromethoxy-phenyl)-vinyl]-oxazol-4-ylmethoxy}-phenyl)-butyl]-1H-tetrazole] | 5 to 250
3 | 200 to 1000 | OCCn1nnnc1CCCCc1ccc(OCc2coc(C=Cc3ccc(OC(F)(F)F)cc3)n2)cc1 [Example 2.4, 2-{5-[4-(4-{2-[2-(4-Trifluoromethoxy-phenyl)-vinyl]-oxazol-4-ylmethoxy}-phenyl)-butyl]-tetrazol-1-yl}-ethanol] | 250 to 1500
4 | 5 to 200 | OCCn1nnc(CCCCc2ccc(OCc3coc(C=Cc4ccc(OC(F)(F)F)cc4)n3)cc2)n1 [Example 2.5, 2-{5-[4-(4-{2-[2-(4-Trifluoromethoxy-phenyl)-vinyl]-oxazol-4-ylmethoxy}-phenyl)-butyl]-tetrazol-2-yl}-ethanol] | 
5 | 5 to 200 | Cn1nnc(CCCCc2ccc(OCc3coc(/C=C/c4ccc(OC(F)(F)F)cc4)n3)cc2)n1 [Example 2.3, Methyl-5-[4-(4-{2-[(E)-2-(4-trifluoromethoxy-phenyl)-vinyl]-oxazol-4-ylmethoxy}-phenyl)-butyl]-2H-tetrazole] | 

Continued, compound first:

Row | Compound | IC50 [2] [nM] | IC50 [1] [nM]
6 | FC(F)(F)Oc1ccc(/C=C/c2nc(COc3ccc(CCCCc4cnn(CCN5CCOCC5)n4)cc3)co2)cc1 [Example 1.19, 4-(2-{4-[4-(4-{2-[(E)-2-(4-Trifluoromethoxy-phenyl)-vinyl]-oxazol-4-ylmethoxy}-phenyl)-butyl]-[1,2,3]triazol-2-yl}-ethyl)-morpholine] |  | 5 to 250
7 | OCCn1cc(CCCCc2ccc(OCc3coc(/C=C/c4ccc(OC(F)(F)F)cc4)n3)cc2)nn1 [Example 1.6, 2-{4-[4-(4-{2-[(E)-2-(4-Trifluoromethoxy-phenyl)-vinyl]-oxazol-4-ylmethoxy}-phenyl)-butyl]-[1,2,3]triazol-1-yl}-ethanol] |  | 166
8 | CC(C)([PH2]=O)n1cc(CCCCc2ccc(OCc3coc(/C=C/c4ccc(OC(F)(F)F)cc4)n3)cc2)nn1 [Example 1.17, 1-(Dimethyl-phosphinoylmethyl)-4-[4-(4-{2-[(E)-2-(4-trifluoromethoxy-phenyl)-vinyl]-oxazol-4-ylmethoxy}-phenyl)-butyl]-1H-[1,2,3]triazole] |  | 250 to 1500
9 | Cn1cc(CCCCc2ccc(OCc3coc(/C=C/c4ccc(OC(F)(F)F)cc4)n3)cc2)nn1 [Example 1.4, 1-Methyl-4-[4-(4-{2-[(E)-2-(4-trifluoromethoxy-phenyl)-vinyl]-oxazol-4-ylmethoxy}-phenyl)-butyl]-1H-[1,2,3]triazole] | 5 to 200 | 5 to 250
10 | N#CCn1nncc1CCCCc1ccc(OCc2coc(/C=C/c3ccc(OC(F)(F)F)cc3)n2)cc1 [Example 1.16, {5-[4-(4-{2-[(E)-2-(4-Trifluoromethoxy-phenyl)-vinyl]-oxazol-4-ylmethoxy}-phenyl)-butyl]-[1,2,3]triazol-1-yl}-acetonitrile] |  | 250 to 1500
11 | CC(C)([PH2]=O)n1ncc(CCCCc2ccc(OCc3coc(/C=C/c4ccc(OC(F)(F)F)cc4)n3)cc2)n1 [Example 1.18, 2-(Dimethyl-phosphinoylmethyl)-4-[4-(4-{2-[(E)-2-(4-trifluoromethoxy-phenyl)-vinyl]-oxazol-4-ylmethoxy}-phenyl)-butyl]-2H-[1,2,3]triazole] |  | 5 to 250
12 | Cn1ncc(CCCCc2ccc(OCc3coc(/C=C/c4ccc(OC(F)(F)F)cc4)n3)cc2)n1 [Example 1.3, 2-Methyl-4-[4-(4-{2-[(E)-2-(4-trifluoromethoxy-phenyl)-vinyl]-oxazol-4-ylmethoxy}-phenyl)-butyl]-2H-[1,2,3]triazole] | 5 to 200 | 
13 | FC(F)(F)Oc1ccc(/C=C/c2nc(COc3ccc(CCCCc4c[nH]nn4)cc3)co2)cc1 [Example 1.1, 4-[4-(4-{2-[(E)-2-(4-Trifluoromethoxy-phenyl)-vinyl]-oxazol-4-ylmethoxy}-phenyl)-butyl]-1H-[1,2,3]triazole] | 200 to 1000 | 128
14 | OCCn1nncc1CCCCc1ccc(OCc2coc(/C=C/c3ccc(OC(F)(F)F)cc3)n2)cc1 [Example 1.7, 2-{5-[4-(4-{2-[(E)-2-(4-Trifluoromethoxy-phenyl)-vinyl]-oxazol-4-ylmethoxy}-phenyl)-butyl]-[1,2,3]triazol-1-yl}-ethanol] |  | 5 to 250
15 | N#CCn1ncc(CCCCc2ccc(OCc3coc(/C=C/c4ccc(OC(F)(F)F)cc4)n3)cc2)n1 [Example 1.14, {4-[4-(4-{2-[(E)-2-(4-Trifluoromethoxy-phenyl)-vinyl]-oxazol-4-ylmethoxy}-phenyl)-butyl]-[1,2,3]triazol-2-yl}-acetonitrile] |  | 250 to 1500
